The values below come from ChEMBL document CHEMBL4706735, “Novel Pyrazolo[3,4-b]pyrazines as SHP2 Inhibitors for Treating Cancer” (ACS Med Chem Lett, 2021).

SMILES strings stand for the structures. pIC50: −log10 of the molar value.

This test in a line: Inhibition of ERK phosphorylation in human HCC827 cells incubated for 30 mins in serum free medium measured by sandwich ELISA. The test is classed as cell-based. The settings on record: HCC827, 0.5 h.
`COc1cnc2ccc(-c3n[nH]c4nc(N5CCC6(CC5)CO[C@@H](C)[C@H]6N)c(CO)nc34)c(Cl)c2n1` showed a pIC50 of 8.08.
With `C[C@@H]1OCC2(CCN(c3nc4[nH]nc(-c5ccc6nn(C)c(Cl)c6c5Cl)c4nc3CO)CC2)[C@@H]1N`, the pIC50 is 8.44.
Regarding `Cn1nc2ccc(-c3n[nH]c4nc(N5CCC6(CC5)CC(F)(F)C[C@H]6N)c(CO)nc34)c(Cl)c2c1Cl`, the pIC50 is 8.21.
For `Cn1cc2c(Cl)c(-c3n[nH]c4nc(N5CCC6(CC5)CC(F)(F)C[C@H]6N)c(CO)nc34)ccc2n1` the value was 8.20; for `C[C@@H]1OCC2(CCN(c3nc4[nH]nc(-c5cccc(Cl)c5F)c4nc3CO)CC2)[C@@H]1N`, 8.25; for `Cn1nc2ccc(-c3n[nH]c4nc(N5CCC6(CC5)C[C@H](F)C[C@H]6N)c(CO)nc34)c(Cl)c2c1Cl`, 8.39.
